Entries after “also recorded” stand apart in the source; their conditions may differ.
Experiments:
Aβ40, Aβ42 and Aβ1-x = experiment: Aβ ELISA of conditioned medium of PS70 cells treated with NSAIDs; format: cell-based, human; conditions: 24 hours; for Aβ1-x level (ELISA): high doses
Method: (§1) Cell culture and drug treatment: PS70 cells, CHO cells stably overexpressing wild-type human PS1 and APP 751 (Xia, W. et al., J. Biol. Chem. 272, 7977-7982, 1997), mouse N2a neuroblastoma, or human embryonic kidney (HEK) cells were used in this study. Cells were cultured in OPTI-MEMI with 5% fetal bovine serum at 37° C. with 5% CO2 in a tissue culture incubator. Primary cultured hippocampal-cortical neurons were prepared from embryonic day 16-18 mouse brain as described (Berezovska, O. et al., Brain Res Mol Brain Res 69: 273-280, 1999).
(§2) The NSAIDs (S)-ibuprofen (250 mM, Biomol, Plymouth Meeting, Penn.), (R)-ibuprofen (250 mM, Biomol), and flurbiprofen (250 mM, Calbiochem, San Diego, Calif.) were dissolved in 100% ethanol. […] Cells were plated onto either 12-well plates (for Aβ determinations) or onto 4-chamber slides (FLIM studies) and treated for 24 hours with NSAIDs prior to the analysis. A vehicle control chamber treated with ethanol or DMSO (0.1%) was included in each experiment. Cell toxicity was analyzed for all drugs tested by measuring adenylate kinase levels using Toxi-light reagent (Camdex, New Jersey).
(§3) ELISA, BACE-specific enzymatic activity assay and Western Blots: For Aβ ELISA we used 500 μl of conditioned medium collected 24 hours post-treatment. Formic acid-extractable Aβ in the mouse brain was measured as described (Fukumoto, H.,et al., Am. J. Pathol. 164, 719-725, 2004). The capture antibody was BNT77 and the detection antibody was horseradish peroxidase (HRP)-conjugated BA27 for Aβ40 and HRP-conjugated BC05 for Aβ42 (Asami-Odaka, A. et al., Biochemistry 34: 10272-10278, 1995). We used BAN50 as a capture antibody and HRP-conjugated BNT77 as a detection antibody for Aβ1-x (a gift from Takeda, Japan) (Asami-Odaka, A. et al., Biochemistry 34: 10272-10278, 1995). BACE activity was measured using a sensitive BACE-specific enzymatic activity assay (Fukumoto, H.,et al., Am. J. Pathol. 164, 719-725, 2004).
We treated Chinese hamster ovary (CHO) cells stably transfected with APP and PS1 (PS70 cells) with several NSAIDs at different doses for 24 hours and measured Aβ40 and Aβ42 using ELISA (FIG. 14).

PS1 [1] = molecular target: T1, PS1 (Homo sapiens, UniProt P49768); experiment: FLIM assay of PS1 N-/C-termini proximity in primary cultured neurons; format: cell-based, mouse; set-up: expressed in transfected cells; host or cells: primary hippocampal-cortical neurons from embryonic day 16-18 mouse brain
Method: as §1, with “1999). Transfection protocol: Transient transfection in cells was performed using Superfect reagents (Qiagen, Valencia, Calif.) according to manufacturer's instructions. Primary cultured neurons were transfected with wild-type PS1 plasmid using the method of calcium phosphate co-precipitation as described (Berezovska, O. et al., Brain Res Mol Brain Res 69: 273-280, 1999; Chen, C. et al., Biotechniques 6: 632-638, 1987).” for “1999).”

[2] = system: APP and PS1 (PS1/γ-secretase complex); experiment: FLIM assay for PS1 loop-APP C-terminus proximity in CHO cells treated with γ-secretase inhibitors; format: cell-based, Chinese hamster; conditions: WT PS1 CHO cells, donor PS1 loop-FITC, acceptor APP770-CY3, 4 h with DAPT 500 nM or WPE-III-31C 1 μM, non-FRET control 2600 ± 110, untreated 2290 ± 216
Method: Chinese hamster ovary (CHO) cells stably transfected with APP770 and either wild type PS1 (wt PS1) or Aspartate mutant PS1 (D257A PS1) were grown in OPTI-MEM with 5% fetal bovine serum and appropriate antibiotics (Puromycin or Zeocin, respectively, (Berezovska et al., 2000)).
Cells were fixed and immunostained 24 hrs posttransfection as described previously (Jack, C. et al., Brain Res Mol Brain Res 87: 166-174, 2001). We used a polyclonal C8 antibody (Selkoe, D. et al., Proc Natl Acad Sci USA 85: 7341-7345, 1988) to detect the C-terminus of APP. A monoclonal antibody to the loop region of PS1 (Chemicon, Temecula, Calif.) was used to identify the γ-secretase complex. PS1 N-terminal X81 antibody was a gift from D. Selkoe (Brigham and Women's Hospital, Boston, Mass.); PS1 C-terminal antibody was purchased from R&D Systems, Inc., Minneapolis, Minn.). For FRET/FLIM studies we chose Cy3-labeled goat anti-rabbit as the acceptor fluorophore, and FITC-labeled goat anti-mouse as the donor fluorophore.
Fluorescence Lifetime Imaging Microscopy (FLIM) relies on the observation that fluorescence lifetimes (the time of fluorophore emission after brief excitation, measured in picoseconds) are shorter in the presence of a FRET acceptor. […] We used a high-speed Hamamatsu detector and hardware/software from Becker and Hickl (Berlin, Germany) to measure fluorescence lifetimes on a pixel-by-pixel basis. […]
The following controls were used to establish and validate the FLIM assay: (1) As a negative control, FITC lifetime was measured in the absence of the acceptor. […] (2) As a positive control, FITC lifetime was measured in the presence of an acceptor. […] By contrast, the FITC fluorescence lifetime (FLIM image) within the area where the acceptor was photobleached reverts to a longer lifetime (color-coded as blue), identical to the lifetime of FITC in the absence of an acceptor (as in the negative control, FIG. 7A). […]
If there was no interaction, lifetimes on the order of ˜2600 psec were observed. If FRET was detected, a population with a statistically shorter lifetime (<˜2400 psec) was observed.

PS1 [3] = molecular target: T1, PS1; experiment: Confocal staining with biotinylated WPE31C as histological reagent (wt PS1 vs D257A PS1 cells); format: cell-based; set-up: expressed in transfected cells; conditions: cells expressing wt PS1
Method: PS1 immunostaining co-localizes with CY3-streptavidin labeled WPE-31C-bi in the cells expressing wt PS1. […] Bar=[…].
We reasoned that an agent that binds to the active site would compete with APP, blocking the APP-PS1 interaction if the first possibility were the case. […] The cells were treated with WPE-31C to examine whether APP would still be associated with the PS1 loop region. […] It has been observed that transition state analogues like WPE31C bind specifically to the heterodimeric form of PS1, and not to the holoprotein prior to cleavage. […] We used a biotinylated form of WPE31C (Esler, W. P. et al., Proc Natl Acad Sci USA 99: 2720-2725, 2002) as a histological reagent. […] Of note, there was less WPE-31C/Cy3 signal in the proximal perinuclear compartment, compared with PS1 immunoreactivity, confirming our observation that some of this PS1 is in a different conformation and is likely not proteolytically active.

APP and PS1 = molecular target: T2, APP and PS1 (Homo sapiens, UniProt P49768); experiment: FLIM assay for PS1-APP proximity after NSAID treatment; format: cell-based; conditions: donor APP-CT-FITC, acceptor loop PS1-Cy3, 24 h, 375 μM S-ibuprofen, 375 μM flurbiprofen, 500 μM aspirin, DMSO vehicle 2127 ± 224
T2 construct: expressed in transfected cells
Method: as §1, §2

PS1 [4] = molecular target: T1, PS1; experiment: In vivo FLIM assay of proximity between N- and C-termini of PS1 in brain sections; set-up: expressed in transfected cells; host or cells: primary hippocampal-cortical neurons from embryonic day 16-18 mouse brain; species or system mouse; conditions: mice, 375 ppm in diet, 15 days; control diet 1934±161 psec; P=0.02
Method: (§4) Ibuprofen treatment of wtPS1 mice: Three-month-old transgenic mice over-expressing wtPS1 were treated with S-ibuprofen (375 ppm in diet, Research Diets, New Brunswick, N.J.) or a control diet for 15 days (6 mice per group). […] At the end of the experimental period animals were sacrificed by CO2 inhalation. The brains were dissected, half of each brain was frozen on dry ice for Aβ ELISA and BACE activity analysis and the other half was fixed in 4% paraformaldehyde for immunohistochemistry.
Half of the brain was fixed, sectioned at 35 μm, and immunostained with antibodies against the N- and C-termini of PS1.

BACE = molecular target: T3, BACE (Mus musculus, UniProt P56818); experiment: BACE-specific enzymatic activity assay in brain of treated mice; format: in vivo; conditions: S-ibuprofen 375 ppm in diet vs control diet, 15 days
T3 construct: from tissue; host or cells: frozen brain of wtPS1 transgenic mice
T3 sequence (P56818 46-501): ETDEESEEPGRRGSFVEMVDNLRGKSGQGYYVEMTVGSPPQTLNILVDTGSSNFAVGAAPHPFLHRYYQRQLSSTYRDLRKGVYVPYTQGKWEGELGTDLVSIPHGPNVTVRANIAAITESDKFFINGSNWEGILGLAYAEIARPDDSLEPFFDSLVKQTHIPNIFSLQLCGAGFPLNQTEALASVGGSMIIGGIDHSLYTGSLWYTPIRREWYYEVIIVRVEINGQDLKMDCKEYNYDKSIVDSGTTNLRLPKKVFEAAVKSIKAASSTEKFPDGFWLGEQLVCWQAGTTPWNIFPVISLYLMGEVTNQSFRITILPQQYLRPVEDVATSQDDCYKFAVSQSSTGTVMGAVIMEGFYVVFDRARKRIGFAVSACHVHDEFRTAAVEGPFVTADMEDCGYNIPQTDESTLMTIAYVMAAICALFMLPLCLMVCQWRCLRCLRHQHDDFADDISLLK
Method: as §3
as §4, with “immunohistochemistry. […]” for “immunohistochemistry.”

[5] = Chow consumption and mouse weight during ibuprofen treatment; format: in vivo; conditions: S-ibuprofen 375 ppm in diet vs control diet, 15 days
Method: as §4

Aβ42 and Aβ40 = experiment: Brain Aβ ELISA in wtPS1 transgenic mice treated with S-ibuprofen; format: in vivo, mouse; conditions: 3-month-old wtPS1 transgenic mice, 375 ppm in diet, 15 days; P=0.03
Method: as §3
as §4, with “immunohistochemistry. […]” for “immunohistochemistry.”

| FITC lifetime (PS1 N- to C-termini distance) (PS1 [1]) | Compound | Aβ42 level (ELISA) (Aβ40, Aβ42 and Aβ1-x) | Aβ1-x level (ELISA) (Aβ40, Aβ42 and Aβ1-x) | Aβ40 level (ELISA) (Aβ40, Aβ42 and Aβ1-x) | other results |
| --- | --- | --- | --- | --- | --- |
| significantly increased | COc1ccc2c(c1)c(CC(=O)O)c(C)n2C(=O)c1ccc(Cl)cc1 [indomethacin] | marked reduction; also recorded: dose-dependent reduction | did not observe a change | – | – |
| not | COc1ccc2cc([C@H](C)C(=O)O)ccc2c1 [naproxen] | No or small change | did not observe a change | No or small change | – |
| – | COC(=O)[C@@H](NC(=O)[C@H](CC(C)C)NC(=O)N(Cc1ccccc1)C[C@@H](O)[C@H](Cc1ccccc1)NC(=O)OC(C)(C)C)C(C)C [WPE-III-31C] | – | – | – | FITC Lifetime (psec) mean ± SD ([2]; listed as WPE31C): 1972 ± 264 (n = 30) psec; FITC Lifetime (psec) mean ± SD ([2]; listed as WPE-31C): tight association between APP and PS1; CY3-streptavidin staining / co-localization with PS1 immunostaining (PS1 [3]): strongly stained |
| – | CC(=O)Oc1ccccc1C(=O)O [aspirin] | No or small change | – | No or small change | – |
| – | CC(C)Cc1ccc([C@@H](C)C(=O)O)cc1 [R-ibuprofen, (R)-ibuprofen] | marked reduction; also recorded: dose-dependent reduction | – | – | – |
| – | CC(C(=O)O)c1ccc(-c2ccccc2)c(F)c1 (centres unmarked) [flurbiprofen] | marked reduction; also recorded: dose-dependent reduction | did not observe a change | reduced | – |
| significantly increased | CC(C)Cc1ccc([C@H](C)C(=O)O)cc1 [S-ibuprofen, (S)-ibuprofen] | marked reduction; also recorded: dose-dependent reduction | did not observe a change | reduced | FITC lifetime APP-CT (mean ± SD) (APP and PS1): 2307 ± 107 psec; FITC lifetime APP-CT (mean ± SD) (APP and PS1; listed as ibuprofen): increased FITC lifetime; FITC lifetime, brain sections stained for PS1 N- and C-termini (PS1 [4]): 2205±104 psec; BACE activity in brain (BACE): No differences; amount of chow consumed, mouse weight [5]: no differences; reduction of Aβ42/Aβ40 ratio in the brain vs control diet (Aβ42 and Aβ40): 12% |

From patent US20050048539A1, “Methods to monitor molecule conformation and molecule/molecule proximity” (The General Hospital Corporation, priority 2003, published 2005)
